In PMC9229294, “Pyridazinones and Structurally Related Derivatives with Anti-Inflammatory Activity” (Molecules, 2022):

Legend:
[1] = Cytotoxicity, CellTiter-Glo, THP1-Blue cells; type: cell-based, human; conditions: human, THP1-Blue cells
Protocol: (§1) Our studies included 175 compounds that were previously synthesized and characterized at NEUROFARBA, Pharmaceutical and Nutraceutical Section, University of Florence, Italy. We previously evaluated the FPR1/FPR2 agonist activity of these compounds by evaluating their ability to induce Ca^2+ mobilization in FPR-transfected HL60 cells and human neutrophils. […] All test compounds were dissolved in DMSO at stock concentrations of 10 mM and stored at −20 °C. For primary screening assays (analysis of NF-κB activation, IL-6 production, and cytotoxicity), the following final concentrations of the compounds were used: 3.125, 6.25, 12.5, 25, and 50 µM; the final concentration of DMSO was 1% in all samples.
(§2) The cytotoxicity was analyzed with a CellTiter-Glo Luminescent Cell Viability Assay Kit from Promega (Madison, WI, USA), according to the manufacturer’s protocol. The luminescent ATP assays are based on a luciferase enzymatic reaction which uses ATP from viable cells to generate photons. For this assay, the cells were incubated with the compounds under investigation for 24 h. After treatment, the cells were equilibrated to room temperature for 30 min, luciferase + luciferin substrate was added, and the samples were analyzed with a Fluoroscan Ascent FL (Thermo Fisher Scientific, Waltham, MA, USA). The IC50 values were calculated by plotting the percentage inhibition against the logarithm of the inhibitor concentration (at least five points).

[2] = tested on: LPS-induced NF-κB activity in THP1-Blue cells; test: Inhibition of LPS-induced NF-κB transcriptional activity, alkaline phosphatase reporter, THP1-Blue cells; type: cell-based, human; conditions: for IC50: LPS-induced NF-κB activity, human THP1-Blue cells, N.A. = no activity at 50 µM; for Inhibition of LPS-induced NF-κB activity (in words): THP1-Blue cells, 250 ng/mL LPS, 24 h; for Observed class for inhibition of NF-κB activity: experimentally observed, Active or N.A.
Protocol: as §1
The activation of NF-κB was measured using an alkaline phosphatase reporter assay in human monocytic THP1-Blue cells stably transfected with a secreted embryonic alkaline phosphatase gene that is under the control of a promoter inducible by the NF-κB. The THP1-Blue cells (2 × 10^5 cells/well) were pretreated with the test compound or DMSO for 30 min, followed by an addition of 250 ng/mL LPS for 24 h. Alkaline phosphatase activity was determined in cell supernatants using a QUANTI-Blue mix (InvivoGen) and measured at 655 nm and compared with positive control samples (LPS).

[3] = tested on: LPS-induced IL-6 production in MonoMac-6 cells; test: Inhibition of LPS-induced IL-6 production in MonoMac-6 cells (ELISA); type: cell-based, human; conditions: for IC50: Homo sapiens, MONO-MAC-6, read-out: Inhibition of IL-6 Production IC50 in MonoMac-6 Cells
Protocol: as §1
A human IL-6 ELISA kit (BD Biosciences, San Jose, CA, USA) was used to measure IL-6 production. […] The cells were pretreated with the test compound or DMSO for 30 min, followed by addition of 250 ng/mL LPS for 24 h. The IC50 values for IL-6 production were calculated by plotting the percentage inhibition against the logarithm of the inhibitor concentration (at least five points).

[4] = Cytotoxicity, CellTiter-Glo, MonoMac-6 cells; type: cell-based, human; conditions: human, MonoMac-6 cells
Protocol: as §1, §2

FPR2 = biological target: T1, FPR2 (Homo sapiens, UniProt P25090); conditions: FPR2-transfected HL-60 cells; agonist activity from Table 1; read-out: Ca2+ Mobilization FPR2 EC50 in HL-60 Cells; cited from earlier work
T1 construct: expressed in transfected cells; host or cells: HL-60 cells (FPR2-HL60)
T1 sequence (P25090 1-351): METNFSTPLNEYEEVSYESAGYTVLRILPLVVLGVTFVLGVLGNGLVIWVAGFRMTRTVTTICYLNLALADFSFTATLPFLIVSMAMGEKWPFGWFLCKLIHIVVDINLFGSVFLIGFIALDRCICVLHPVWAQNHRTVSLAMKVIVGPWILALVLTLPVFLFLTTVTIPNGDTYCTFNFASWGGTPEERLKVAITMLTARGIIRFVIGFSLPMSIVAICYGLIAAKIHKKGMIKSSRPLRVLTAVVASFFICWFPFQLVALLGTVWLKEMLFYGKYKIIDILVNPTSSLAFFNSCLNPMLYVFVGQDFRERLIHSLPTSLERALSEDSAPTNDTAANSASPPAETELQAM

FPR1 = biological target: T2, FPR1 (Homo sapiens, UniProt P21462); conditions: FPR1-transfected HL-60 cells; agonist activity from Table 1; read-out: Ca2+ Mobilization FPR1 EC50 in HL-60 Cells; cited from earlier work
T2 construct: expressed in transfected cells; host or cells: HL-60 cells (FPR1-HL60)
T2 sequence (P21462 1-350): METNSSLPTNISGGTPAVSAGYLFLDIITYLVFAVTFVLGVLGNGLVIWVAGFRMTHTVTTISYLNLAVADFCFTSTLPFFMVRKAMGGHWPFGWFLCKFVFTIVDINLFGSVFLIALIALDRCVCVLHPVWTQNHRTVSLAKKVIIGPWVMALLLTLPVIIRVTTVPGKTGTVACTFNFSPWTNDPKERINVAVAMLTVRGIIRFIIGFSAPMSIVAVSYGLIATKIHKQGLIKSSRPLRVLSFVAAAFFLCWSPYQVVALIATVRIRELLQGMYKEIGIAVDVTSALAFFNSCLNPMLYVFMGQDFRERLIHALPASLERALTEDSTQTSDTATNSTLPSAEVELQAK

[5] = N.T. = no cytotoxicity at 50 µM, read-out: Cytotoxicity IC50 in THP1-Blue Cells

Structure (SMILES) | IC50 ([2]; Homo sapiens) [µM] | IC50 [3] [µM] | IC50 at 24 h [1, 5] [µM] | IC50 [2] [µM] | Inhibition of LPS-induced NF-κB activity (in words) [2] | Observed class for inhibition of NF-κB activity [2] | Inhibition of LPS-induced IL-6 production (in words) ([3]; MonoMac-6 cells, 250 ng/mL LPS, 24 h) | IC50 at 24 h [4] [µM] | EC50 (FPR2) [µM] | EC50 (FPR1) [µM] | IC50 at 24 h ([1]; 24 h, read-out: Cytotoxicity IC50) [µM]
CC(C)c1c(NC(=O)Nc2ccc(Cl)cc2)c(=O)n(-c2ccccc2)n1C [Cmpd43, N-(4-chlorophenyl)-N′-(5-isopropyl-1-methyl-3-oxo-2-phenyl-2,3-dihydro-1H-pyrazol-4-yl)urea, reference compound] |  |  | > 50 | > 50 | did not inhibit |  |  |  |  |  | 
COc1cccc(Cc2cc(C)nn(CC(=O)Nc3ccc(Br)cc3)c2=O)c1 [Compound 1] |  |  |  |  | inactive |  |  |  |  |  | 
COc1cccc(Cc2cc(C(C)C)nn(CC(=O)Nc3ccc(Br)cc3)c2=O)c1 [Compound 10] | 22 ± 1.7 | 8.7 ± 1.6 | > 50 |  |  | Active |  | > 50 |  |  | 
COc1ccc(-c2cc(C)nn(CC(=O)Nc3ccc(Br)cc3)c2=O)cc1 [Compound 19] |  |  |  |  | inactive |  |  |  |  |  | 
Cc1cc(Cc2cccc(Cl)c2)c(=O)n(CC(=O)Nc2ccc(I)cc2)n1 [Compound 23] | 7.1 ± 2 | 13.1 ± 0.3 | > 50 |  |  | Active |  | > 50 |  |  | 
Cc1cc(Cc2ccccc2)c(=O)n(CC(=O)Nc2ccc(Br)cc2)n1 [Compound 30] | 28.4 ± 5.7 |  | > 50 |  |  | Active |  |  |  |  | 
COc1ccc(Cc2cc(-c3ccc(F)cc3)nn(CC(=O)Nc3ccc(Br)cc3)c2=O)cc1 [Compound 49] | 34.5 ± 2.1 |  | > 50 |  |  | Active |  |  | > 50 | > 50 | 
COc1ccc(N(c2ccc(OC)cc2)c2cc(C)nn(CC(=O)Nc3ccc(Br)cc3)c2=O)cc1 [Compound 50] | 32.8 ± 0.7 |  | > 50 |  |  | Active |  |  | > 50 | > 50 | 
Cc1cc(Cc2ccc(C(F)(F)F)cc2)c(=O)n(CC(=O)Nc2ccc(Br)cc2)n1 [Compound 66] | 31.5 ± 2.2 |  | 26.4 ± 4.7 |  |  | Active |  |  | > 50 | > 50 | 22 to 26
Cc1cc(-c2ccccc2)nn(CC(=O)Nc2ccc(Br)cc2)c1=O [Compound 67] | 30.9 ± 2.3 |  | > 50 |  | active |  |  |  | 10.1 | 21.5 | 

Continued, in another order:

IC50 ([2]; Homo sapiens) [µM] | IC50 [3] [µM] | Structure (SMILES) | IC50 at 24 h [1, 5] [µM] | IC50 [2] [µM] | Inhibition of LPS-induced NF-κB activity (in words) [2] | Observed class for inhibition of NF-κB activity [2] | Inhibition of LPS-induced IL-6 production (in words) ([3]; MonoMac-6 cells, 250 ng/mL LPS, 24 h) | IC50 at 24 h [4] [µM] | EC50 (FPR2) [µM] | EC50 (FPR1) [µM] | IC50 at 24 h ([1]; 24 h, read-out: Cytotoxicity IC50) [µM]
44.5 ± 2.5 | 30.7 ± 3.6 | COc1cccc(Cc2cc(C)nn(CC(=O)Nc3cccc(Br)c3)c2=O)c1 [Compound 2] | > 50 |  |  | Active | inhibitors of IL-6 production | > 50 |  |  | 
46.1 ± 1 |  | COc1cccc(Cc2cc(C)nn(CC(=O)Nc3ccc([N+](=O)[O-])cc3)c2=O)c1 [Compound 5] | > 50 |  |  | Active |  |  |  |  | 
33.6 ± 2.1 |  | COc1cccc(Cc2cc(C)nn(CC(=O)Nc3ccc(F)cc3)c2=O)c1 [Compound 15] | > 50 |  |  | Active |  |  |  |  | 
27.9 ± 2.1 |  | Cc1cc(Cc2cccc(F)c2)c(=O)n(CC(=O)Nc2ccc(Br)cc2)n1 [Compound 64] | > 50 |  |  | Active |  |  |  |  | 
